Data from article PMC7579906, “Discovery of a dual inhibitor of NQO1 and GSTP1 for treating glioblastoma” (Journal of Hematology & Oncology, 2020).

Legend:
[1] = Toxicity in treated mice (organ H&E, CBC, ALT, AST, body weight); assay type: in vivo, mouse
Description: (§1) Animals were housed, maintained and treated at Emory University in accordance with protocols approved by the Institutional Animal Care and Use Committee (IACUC) at Emory University. For xenograft animal models, U87MG/EGFRvIII cells (2 × 10^6) in 100 μl of PBS were inoculated subcutaneously into 6-week-old nude mice. Tumor growth was assessed every 3 days via size and body weight measurements. The total tumor volume (TV) was calculated according to the following formula: TV (mm^3) = a * b^2/2, where “a” is the […] diameter and “b” denotes the […] diameter. The mice were euthanized after 28 days. For the intracranial model, mice were placed in a stereotaxic instrument, and cells injection (1 × 10^5) in 2 μl was performed stereotaxically at coordinates anteroposterior (AP) -2.0 mm and mediolateral (ML) + 0.7 mm relative to bregma, and dorsoventral (DV) -3.0 mm from the dural surface. The needle remained in place for 5 min before it was removed slowly. The mice were placed on a heating pad until it began to recover from the surgery. After the surgery for 8 days, intraperitoneal (i.p.) injection was used at dose levels of 3 mg/kg, 10 mg/kg or control agent. This treatment was performed every 2 days for a total of 10 times. After the drug treatment, mice were euthanized and the tumor volumes were analyzed by MRI [37].
(§2) The tumors and primary organs from the nude mice of the above models were fixed in 10% formalin overnight and were then embedded in paraffin. Sections were prepared, and H&E staining was conducted to detect any histological changes of the tumors and organs. The expression of Ki67 in the tumor tissue slices was assessed using a technique that has been reported previously. Photographs were taken using a fluorescence microscope (Nikon, Japan).

[2] = tested on: U87MG/EGFRvIII cells; assay: Apoptosis: cleaved caspase 3 western blot and TUNEL; assay type: cell-based, human; settings: 0-5 μM, 48 h, confirmed by TUNEL
Description: After different treatments with the conditions described, the cells were harvested and the total proteins were extracted. Equal amounts of the proteins were loaded on SDS-PAGE and western blot assays were analyzed. Primary antibodies were from CST, USA, and the following targets were used: p-EGFR (#2236); EGFR (#2232); NQO1 (#3187); GSTP1 (#3369); cleaved caspase 3 (#9664); β-actin (#3700).
After different treatments, the cells and the tumor tissues were processed with Apo-Direct TUNEL Assay (Roche Applied Science, Germany) following the manufacture’s instruction. The slides were photographed with a fluorescence microscope (Nikon, Japan).

[3] = tested on: U87MG/EGFRvIII intracranial tumors; assay: Intracranial U87MG/EGFRvIII xenograft in nude mice; assay type: in vivo, mouse
Description: as §1, §2

[4] = tested on: U87MG/EGFRvIII cells; assay: LDH, protein carbonyl and GSH/GSSG measurements; assay type: cell-based, human; settings: dose-dependent, 0-5 μM
Description: After collecting the supernatants, the […] were measured using LDH assay kits (Promega Corporation, USA). Protein carbonyl level and GSH/GSSG ratio were measured from cell homogenates using Protein Carbonyl Assay Kit (#ab126287, Abcam, Cambridge MA, USA) and GSH/GSSG-Glo™ (Promega Corporation, USA), respectively.

[5] = molecular target: T1, GSTP1 Y108A (Homo sapiens, UniProt P09211, I105V/Y109A); assay: Microscale thermophoresis (MST), Y108A; settings: n.b. = no clear binding detected
T1 construct: hexahistidine tag followed by a thrombin site (N); made in house; host or cells: Escherichia coli BL21 (DE3)
Description: (§3) Since Tris buffer is incompatible with MST labeling, GSTP1 and its mutants were performed an initial buffer exchange to 20 mM HEPES pH 7.6, 200 mM NaCl before labeling. Then, the proteins were fluorescently labeled using Monolith Protein Labeling Kit RED-NHS 2nd generation dye (NanoTemper Technology, Munich, Germany) according to the protocol. MNPC was prepared with a series of concentrations (varying from 2 mM to 11 nM) at a dilution ratio of 1: 2. Six microliters of the fluorescence-labeled GSTP1 or mutations was mixed with 6 μl of variable concentration of MNPC and incubated for 10 min at room temperature. The mixtures were loaded into standard glass capillaries and analyzed on Monolith NT.115 at 25 °C, with 40% LED power and 100% Laser power in triplicate. Data were analyzed by NTAnalysis software to calculate the Kd values.

[6] = tested on: U87MG/EGFRvIII cells; assay: ROS measurement (DCFH-DA); assay type: cell-based, human; settings: dose-dependent, 0-5 μM
Description: The DCFH-DA method was employed to detect the levels of intracellular reactive oxygen species (ROS). After various treatments, the cells were collected and then incubated with 5 μM DCFH-DA (ROS dye, #C6827, Invitrogen, USA) for 1 h at 37 °C. The fluorescence intensity was measured by the microplate reader (BioTek Instruments Inc., USA) with settings at excitation and emission equal to 485/535 nm.

[7] = molecular target: T2, GSTP1 F8A (Homo sapiens, UniProt P09211, F9A/I105V); assay: Microscale thermophoresis (MST), F8A; settings: n.b. = no clear binding detected
T2 construct: hexahistidine tag followed by a thrombin site (N); made in house; host or cells: Escherichia coli BL21 (DE3)
Description: as §3

[8] = molecular target: T3, AEP (asparagine endopeptidase) (Homo sapiens, UniProt Q99538); assay: AEP activity assay in cell lysates; assay type: cell-based; settings: U87MG/EGFRvIII lysates, 0-5 μM
T3 construct: endogenous in cells; host or cells: U87MG/EGFRvIII cells (lysate)
T3 sequence (Q99538 18-433): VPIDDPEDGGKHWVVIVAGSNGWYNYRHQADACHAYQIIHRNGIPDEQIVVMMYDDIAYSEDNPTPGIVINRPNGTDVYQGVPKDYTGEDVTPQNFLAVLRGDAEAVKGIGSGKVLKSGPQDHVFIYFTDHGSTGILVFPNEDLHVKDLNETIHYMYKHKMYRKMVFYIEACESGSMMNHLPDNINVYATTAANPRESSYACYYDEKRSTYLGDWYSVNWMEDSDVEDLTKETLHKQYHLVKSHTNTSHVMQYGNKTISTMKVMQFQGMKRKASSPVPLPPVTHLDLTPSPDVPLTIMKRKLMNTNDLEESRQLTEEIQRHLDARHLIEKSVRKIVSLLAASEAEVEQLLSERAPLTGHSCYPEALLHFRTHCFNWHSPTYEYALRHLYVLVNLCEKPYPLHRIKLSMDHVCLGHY
Description: After different treatments, cell lysates were incubated in 200 μl assay buffer (20 mM citric acid, 60 mM Na2HPO4, 1 mM EDTA, 0.1% CHAPS and 1 mM DTT, pH 6.0) containing 20 μM AEP substrate Z-Ala-Ala-Asn-AMC (Bachem, USA). AMC released by substrate cleavage was quantified by measuring every 10 min at 460 nm in a fluorescence plate reader at 37 °C in kinetic mode for the total time of 1 h.

[9] = higher dose (10 mg/kg) i.p. every 2 days, 10 doses

T1 sequence (P09211 whole entry I105V/Y109A): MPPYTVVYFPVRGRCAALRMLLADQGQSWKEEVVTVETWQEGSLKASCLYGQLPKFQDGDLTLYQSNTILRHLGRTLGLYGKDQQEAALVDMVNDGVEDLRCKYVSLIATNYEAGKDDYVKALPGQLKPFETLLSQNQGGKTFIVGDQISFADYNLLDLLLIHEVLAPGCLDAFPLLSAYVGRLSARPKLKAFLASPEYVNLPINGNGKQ
T2 sequence (P09211 whole entry F9A/I105V): as the sequence (P09211 whole entry I105V/Y109A) above, with F9A, A109Y counted along it

## Cc1onc(-c2ccccc2)c1C(=O)Nc1ncc([N+](=O)[O-])s1 [MNPC, 5-methyl-N-(5-nitro-thiazol-2-yl)-3-phenylisoxazole-4-carboxamide]
[1]; RBC, WBC, ALT, AST, 3, 10 mg/kg, N.S. vs vehicle
  Side effect by CBC, ALT and AST: modest
[1]; kidney, liver, spleen, heart and lung, 3, 10 mg/kg i.p.
  H&E staining of major organs: no detectable toxicity
[1]; treated mice
  Body weight loss: absence of weight loss
[2]
  Caspase 3 activation / apoptosis: induced caspase 3 activation
[3]; 3 and 10 mg/kg i.p.
  ROS levels, active caspase 3 and apoptosis in tumors: dose-dependently increased
[3]; [9]
  Mouse survival: enhanced mouse survival
  Tumor growth (intracranial tumor volume): reduced tumor growth
[4]
  Carbonyl expression: induced
  GSH/GSSG ratio: downregulating
  LDH release: induced
[5]
  Kd (μM), Y108A: n.b. and no detectable binding
[6]
  ROS levels: elevated
[7]
  Kd (μM), F8A: n.b. and no detectable binding
[8]
  Inhibition of AEP: nor inhibited
